Assay results reported in patent US12527325B2, “Pesticidally active diazine-amide compounds” (SYNGENTA CROP PROTECTION AG, priority 2019, dated 2026).

Columns and labels:
Type in all cases: in vivo
[1] = system: Frankliniella occidentalis; assay: Example B3: Frankliniella occidentalis (Western Flower Thrips): Feeding/Contact Activity; conditions: foliar, 168 h, application rate of 200 ppm, sprayed sunflower leaf discs, population of mixed ages, 7 days after infestation
Method: Example B3: Frankliniella occidentalis (Western Flower Thrips): Feeding/Contact Activity
Sunflower leaf discs were placed on agar in 24-well microtiter plates and sprayed with aqueous test solutions prepared from […] stock solutions. After drying the leaf discs were infested with a Frankliniella population of mixed ages. The samples were assessed for mortality 7 days after infestation.

[2] = system: Myzus persicae; assay: Example B7: Myzus persicae (Green Peach Aphid): Systemic Activity; conditions: 144 h, test rate of 24 ppm, roots of pea seedlings in test solution, 6 days
Method: Example B7: Myzus persicae (Green Peach Aphid): Systemic Activity
Roots of pea seedlings infested with an aphid population of mixed ages were placed directly into aqueous test solutions prepared from 10′000 DMSO stock solutions. The samples were assessed for mortality 6 days after placing seedlings into test solutions.

[3] = system: Chilo suppressalis; assay: Example B4: Chilo suppressalis (Striped Rice Stemborer); conditions: 144 h, application rate of 200 ppm, artificial diet, L2 larvae, 6 days after infestation, read-out: control in at least one of the three categories (mortality, anti-feedant or growth inhibition)
In short: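 Artificial diet was treated with aqueous dilutions made from 10'000 ppm DMSO stocks, dried, then infested with L2 larvae at 6–8 per well. Mortality, antifeedant effect and growth inhibition were assessed against untreated samples 6 days after infestation.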

[4] = system: Plutella xylostella; assay: Example B5: Plutella xylostella (Diamond Back Moth); conditions: 192 h, application rate of 200 ppm, 24-well artificial diet, eggs, 8 days after infestation, read-out: control in at least one of the two categories (mortality or growth inhibition)
Method: Example B5: Plutella xylostella (Diamond Back Moth)
24-well microtiter plates with artificial diet were treated with aqueous test solutions prepared from 10′000 ppm DMSO stock solutions by pipetting. After drying, Plutella eggs were pipetted through a plastic stencil onto a gel blotting paper and the plate was closed with it. The samples were assessed for mortality and growth inhibition in comparison to untreated samples 8 days after infestation.

[5] = system: Euschistus heros; assay: Example B2: Euschistus heros (Neotropical Brown Stink Bug); conditions: 120 h, application rate of 200 ppm, sprayed soybean leaves, N2 nymphs, 5 days after infestation, read-out: control in at least one of the two categories (mortality or growth inhibition)
Method: Example B2: Euschistus heros (Neotropical Brown Stink Bug)
Soybean leaves on agar in 24-well microtiter plates were sprayed with aqueous test solutions prepared from 10′000 ppm DMSO stock solutions. After drying the leaves were infested with N2 nymphs. The samples were assessed for mortality and growth inhibition in comparison to untreated samples 5 days after infestation.

[6] = system: Myzus persicae; assay: Example B8: Myzus persicae (Green Peach Aphid): Intrinsic Activity; conditions: 120 h, test rate of 12 ppm, 24-well sucrose solution under Parafilm, 5 days after infestation
Source text: Example B8: Myzus persicae (Green Peach Aphid): Intrinsic Activity
Test compounds prepared from 10′000 ppm DMSO stock solutions were applied by pipette into 24-well microtiter plates and mixed with sucrose solution. The plates were closed with a stretched Parafilm. A plastic stencil with 24 holes was placed onto the plate and infested pea seedlings were placed directly on the Parafilm. The infested plate was closed with a gel blotting paper and another plastic stencil and then turned upside down. The samples were assessed for mortality 5 days after infestation.

[7] = system: Spodoptera littoralis; assay: Example B9: Spodoptera littoralis (Egyptian Cotton Leaf Worm), cotton leaf disc spray; conditions: foliar, 72 h, application rate of 200 ppm, sprayed cotton leaf discs, L1 larvae, 3 days after infestation, read-out: control in at least one of the three categories (mortality, anti-feedant or growth inhibition)
[8] = system: Diabrotica balteata; assay: Example B1: Diabrotica balteata (Corn Root Worm); conditions: 96 h, application rate of 200 ppm, sprayed maize sprouts, L2 larvae, 4 days after infestation, read-out: control in at least one of the two categories (mortality or growth inhibition)
Method: Example B1: Diabrotica balteata (Corn Root Worm)
Maize sprouts placed onto an agar layer in 24-well microtiter plates were treated with aqueous test solutions prepared from 10′000 ppm DMSO stock solutions by spraying. After drying, the plates were infested with L2 larvae (6 to 10 per well). The samples were assessed for mortality and growth inhibition in comparison to untreated samples 4 days after infestation.

[9] = system: Spodoptera littoralis; assay: Example B10: Spodoptera littoralis (Egyptian Cotton Leaf Worm), uptake by lettuce roots from agar; conditions: 144 h, test rate of 12.5 ppm, compound in agar absorbed by lettuce roots, eggs, 6 days after infestation, read-out: control in at least one of the three categories (mortality, anti-feedant, or growth inhibition)
Source text: Example B10: Spodoptera littoralis (Egyptian Cotton Leaf Worm)
Test compounds were applied by pipette from 10′000 ppm DMSO stock solutions into 24-well plates and mixed with agar. Lettuce seeds were placed onto the agar and the multi well plate was closed by another plate which contained also agar. After 7 days the compound was absorbed by the roots and the lettuce grew into the lid plate. The lettuce leaves were then cut off into the lid plate. Spodoptera eggs were pipetted through a plastic stencil onto a humid gel blotting paper and the lid plate was closed with it. The samples were assessed for mortality, anti-feedant effect and growth inhibition in comparison to untreated samples 6 days after infestation.

[10] = system: Plutella xylostella; assay: Example B12: Plutella xylostella (Diamondback Moth), 96-well artificial diet; conditions: 216 h, application rate of 500 ppm, eggs, 9 days after infestation
Method: Example B12: Plutella xylostella (Diamondback Moth)
96-well microtiter plates containing artificial diet were treated with aqueous test solutions, prepared from 10′000 ppm DMSO stock solutions, by a liquid handling robot. After drying, eggs (˜30 per well) were infested onto a netted lid which was suspended above the diet. The eggs hatch and L1 larvae move down to the diet. The samples were assessed for mortality 9 days after infestation.

[11] = system: Myzus persicae; assay: Example B6: Myzus persicae (Green Peach Aphid): Feeding/Contact Activity; conditions: foliar, 144 h, application rate of 200 ppm, sprayed sunflower leaf discs, aphid population of mixed ages, 6 days after infestation
Method: Example B6: Myzus persicae (Green Peach Aphid): Feeding/Contact Activity
Sunflower leaf discs were placed onto agar in a 24-well microtiter plate and sprayed with aqueous test solutions prepared from 10′000 ppm DMSO stock solutions. After drying, the leaf discs were infested with an aphid population of mixed ages. The samples were assessed for mortality 6 days after infestation.

CC(NC(=O)c1cc(C(F)(F)F)cc(S(=O)(=O)C2CC2)c1)c1nccnc1-c1ncccn1 (centres unmarked) [P10, 3-cyclopropylsulfonyl-N-[1-(3-pyrimidin-2-ylpyrazin-2-yl)ethyl]-5-(trifluoromethyl) benzamide]
≥ 80%: mortality at 200 ppm [1] | mortality at 24 ppm [2] | percent control (mortality, anti-feedant effect or growth inhibition) at 200 ppm [3] | percent control (mortality or growth inhibition) at 200 ppm [4] | percent control (mortality or growth inhibition) at 200 ppm [5] | mortality at 12 ppm [6]

CC(NC(=O)c1cc(C2CC2)nc(C(F)(F)F)c1)c1nccnc1-c1ncccn1 (centres unmarked) [P31, 2-cyclopropyl-N-[1-(3-pyrimidin-2-ylpyrazin-2-yl)ethyl]-6-(trifluoromethyl)pyridine-4-carboxamide]
≥ 80%: percent control (mortality, anti-feedant effect or growth inhibition) at 200 ppm [7] | mortality at 200 ppm [1] | percent control (mortality or growth inhibition) at 200 ppm [8] | percent control (mortality, anti-feedant effect or growth inhibition) at 200 ppm [3] | percent control (mortality or growth inhibition) at 200 ppm [4] | percent control (mortality or growth inhibition) at 200 ppm [5] | mortality at 12 ppm [6]

CC(NC(=O)c1cc(C(F)(F)F)nc(C2(C#N)CC2)c1)c1nccnc1-c1ncccn1 (centres unmarked) [P32, 2-(1-cyanocyclopropyl)-N-[1-(3-pyrimidin-2-ylpyrazin-2-yl)ethyl]-6-(trifluoromethyl)pyridine-4-carboxamide]
≥ 80%: percent control (mortality, anti-feedant effect or growth inhibition) at 200 ppm [7] | mortality at 200 ppm [1] | percent control (mortality or growth inhibition) at 200 ppm [8] | percent control (mortality, anti-feedant effect or growth inhibition) at 200 ppm [3] | percent control (mortality or growth inhibition) at 200 ppm [4] | percent control (mortality or growth inhibition) at 200 ppm [5] | mortality at 12 ppm [6]

CC(NC(=O)c1cc(C(F)(F)F)cc(C(F)(F)C2CC2)c1)c1nccnc1-c1ncc(C2CC2)cn1 (centres unmarked) [P39, 3-[cyclopropyl(difluoro)methyl]-N-[1-[3-(5-cyclopropylpyrimidin-2-yl)pyrazin-2-yl]ethyl]-5-(trifluoromethyl)benzamide]
≥ 80%: percent control (mortality, anti-feedant effect or growth inhibition) at 200 ppm [7] | percent control (mortality, anti-feedant effect or growth inhibition) at 12.5 ppm [9] | percent control (mortality or growth inhibition) at 200 ppm [8] | percent control (mortality, anti-feedant effect or growth inhibition) at 200 ppm [3] | percent control (mortality or growth inhibition) at 200 ppm [4] | mortality at 500 ppm [10]

CC(NC(=O)c1cc(OC(F)F)cc(C2(C#N)CC2)c1)c1nccnc1-c1ncccn1 (centres unmarked) [P44, 3-(1-cyanocyclopropyl)-5-(difluoromethoxy)-N-[1-(3-pyrimidin-2-ylpyrazin-2-yl)ethyl]benzamide]
≥ 80%: percent control (mortality, anti-feedant effect or growth inhibition) at 200 ppm [7] | mortality at 200 ppm [1] | mortality at 24 ppm [2] | percent control (mortality or growth inhibition) at 200 ppm [8] | percent control (mortality, anti-feedant effect or growth inhibition) at 200 ppm [3] | percent control (mortality or growth inhibition) at 200 ppm [4] | percent control (mortality or growth inhibition) at 200 ppm [5] | mortality at 12 ppm [6] | mortality at 200 ppm [11]

CC(NC(=O)c1cc(OC(F)F)cc(S(=O)(=O)C(F)(F)F)c1)c1nccnc1-c1ncccn1 (centres unmarked) [P45, 3-(difluoromethoxy)-N-[1-(3-pyrimidin-2-ylpyrazin-2-yl)ethyl]-5-(trifluoromethylsulfonyl) benzamide]
≥ 80%: percent control (mortality, anti-feedant effect or growth inhibition) at 200 ppm [7] | percent control (mortality, anti-feedant effect or growth inhibition) at 200 ppm [3] | percent control (mortality or growth inhibition) at 200 ppm [4] | mortality at 200 ppm [11]

CC(NC(=O)c1cc(OC(F)(F)F)cc(C2(C#N)CC2)c1)c1nccnc1-c1ncccn1 (centres unmarked) [P46, 3-(1-cyanocyclopropyl)-N-[1-(3-pyrimidin-2-ylpyrazin-2-yl)ethyl]-5-(trifluoromethoxy) benzamide]
≥ 80%: percent control (mortality, anti-feedant effect or growth inhibition) at 200 ppm [7] | mortality at 24 ppm [2] | percent control (mortality or growth inhibition) at 200 ppm [8] | percent control (mortality, anti-feedant effect or growth inhibition) at 200 ppm [3] | percent control (mortality or growth inhibition) at 200 ppm [4] | percent control (mortality or growth inhibition) at 200 ppm [5] | mortality at 12 ppm [6] | mortality at 200 ppm [11]
